Data: US9522154B2, “Method for scheduling ovulation” (LABORATOIRE HRA-PHARMA, priority 2013, dated 2016)

Assays:
leading ovarian follicle = experiment: Clinical trial of a single oral 30 mg dose on the outcome of the leading ovarian follicle before LH surge; format: in vivo, human; settings: follicle 14-16 mm
Experimental: The results from the clinical trial described in Example 2 were confirmed by a second clinical trial designed to evaluate the effect of a single oral dosage of 30 mg ulipristal acetate on the outcome of the leading ovarian follicle before LH surge, when the follicle was 14-16 mm in diameter. 31 women satisfying all the exclusion/inclusion criteria were enrolled. After the inclusion visit, the women entered the study and underwent ultrasound monitoring starting from Day 5 of their menstrual cycle until the lead follicle reached a diameter of 14-16 mm. At this time, the women received one single dosage of 30 mg ulipristal acetate orally. The women were then monitored daily by ultrasound and hormonal assays until the end of the 21 days treatment period or until ovulation occurred or until the mucus score reached 4 or less at 2 consecutive visits, whichever came first. After which point they were seen twice a week until the end of the study.

women [1] = settings: single dose of 30 mg within 72 hours or 120 hours after the intercourse; cited from earlier work
women [2] = experiment: Open-label trial of repeated ulipristal acetate 30 mg oral tablet, once weekly (Q7D) or every 5 days (Q5D) for 8 weeks: ovulation; format: in vivo, human
Experimental: In an open-label designed trial, 12 women received once weekly (Q7D) treatment with ulipristal acetate (30 mg oral tablet) for eight consecutive weeks starting on 7 days ±1 day after the onset of menses in the first cycle; and 11 women received ulipristal acetate 30 mg every 5 days (Q5D) for 8 weeks. […] The first ovulation occurred after a mean of 3.4 and 6.5 doses, and a mean of 17 and 26 days after start of treatment, in the Q7D and Q5D treatment arms, respectively.
Whenulipristal acetate was given during the follicular phase before the onset of the LH surge, ovulation occurred between 6 and 9 days of the last treatment intake in the majority of women.

CC(=O)O[C@]1(C(C)=O)CC[C@H]2[C@@H]3CCC4=CC(=O)CCC4=C3[C@@H](c3ccc(N(C)C)cc3)C[C@@]21C [ulipristal acetate, 17α-acetoxy-11β-[4-N, N-dimethylamino-phenyl)-19-norpregna-4,9-diene-3,20-dione]
mean duration for the ovulation to occur (leading ovarian follicle): 7 days | median duration for the ovulation to occur (leading ovarian follicle): 6 days | Outcome of the leading follicle: Atresia, number of women (leading ovarian follicle; 31 women): 0 | Outcome of the leading follicle: LUF, number of women (leading ovarian follicle; 31 women): 2 | Outcome of the leading follicle: Luteal phase insufficiency, number of women (leading ovarian follicle; 31 women): 1 | Outcome of the leading follicle: Ovulation, number of women (leading ovarian follicle; 31 women): 27 | Outcome of the leading follicle: Persistent Follicle, number of women (leading ovarian follicle; 31 women): 1 | avoidance of unwanted pregnancy (emergency contraception) (women [1]): safe and effective | mean time to first ovulation after start of treatment (women [2]; Q5D arm, 30 mg every 5 days for 8 weeks): 26 days | mean number of doses until first ovulation (women [2]; Q5D arm, 30 mg every 5 days for 8 weeks, 11 women): 6.5 doses | inhibition of ovulation throughout the duration of treatment (women [2]; Q7D and Q5D regimens, majority of subjects): Neither regimen inhibited ovulation throughout the duration of treatment in a majority of subjects | mean time to first ovulation after start of treatment (women [2]; Q7D arm, 30 mg oral tablet once weekly for 8 weeks): 17 days | mean number of doses until first ovulation (women [2]; Q7D arm, 30 mg oral tablet once weekly for 8 weeks, 12 women): 3.4 doses | parameters of the luteal phase (duration, progesterone levels) (women [2]; after exposure to 30 mg): remain within the normal range | fertilizability of the oocyte (women [2]; despite lengthened follicular phase and delay of LH surge, normal pregnancies after 30 mg exposure in emergency contraception trials): the oocyte remains fertilizable
